Experimental data: patent US11168093B2, “Thienopyridine inhibitors of RIPK2” (Celgene Corporation, priority 2018, dated 2021)

Molecular target: RIPK2 enzyme (Homo sapiens (Human), UniProt O43353)
Assay: RIPK2 inhibition assay, TR-FRET LanthaScreen Tracer 199 screening assay
Assay type: binding
Conditions: 5 nM RIPK2 enzyme, Tracer 199 at 50 nM, Eu-anti-His Antibody at 2 nM, 1 hour incubation
In short: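 TR-FRET binding displacement: 5 nM RIPK2, 50 nM Tracer 199, 2 nM Eu-anti-His antibody in 1× kinase reaction buffer, 1 h, read at room temperature (340 ex/665 and 615 em). No-enzyme background subtracted; percent inhibition versus uninhibited controls, IC50 from unconstrained variable-slope fit.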

RIPK2 enzyme, sequence (O43353 whole entry): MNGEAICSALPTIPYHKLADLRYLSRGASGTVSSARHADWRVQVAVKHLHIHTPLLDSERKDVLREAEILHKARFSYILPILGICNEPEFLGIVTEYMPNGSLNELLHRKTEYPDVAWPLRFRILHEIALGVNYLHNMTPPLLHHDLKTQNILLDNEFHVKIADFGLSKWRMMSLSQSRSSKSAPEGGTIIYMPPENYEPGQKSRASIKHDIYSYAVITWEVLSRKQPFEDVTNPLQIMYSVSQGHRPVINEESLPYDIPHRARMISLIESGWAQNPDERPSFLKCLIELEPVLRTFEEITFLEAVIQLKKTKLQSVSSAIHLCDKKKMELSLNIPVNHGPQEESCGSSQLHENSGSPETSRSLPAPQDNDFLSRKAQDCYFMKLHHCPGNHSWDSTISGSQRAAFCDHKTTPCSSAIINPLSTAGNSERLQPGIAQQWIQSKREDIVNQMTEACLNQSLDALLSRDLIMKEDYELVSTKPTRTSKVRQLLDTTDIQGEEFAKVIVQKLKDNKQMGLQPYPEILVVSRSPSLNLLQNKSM

| Structure (SMILES) | IC50 |
| --- | --- |
| CC1(C)C(c2cc3c(Nc4cc5ncsc5cc4F)ccnc3s2)CCN1CCO (centres unmarked) [Example 80, 2-(3-(4-((6-fluorobenzo[d]thiazol-5-yl)amino)thieno[2,3-b]pyridin-2-yl)-2,2-dimethyl-pyrrolidin-1-yl)ethan-1-ol] | 20 to 50 nM |
| Fc1cc2scnc2cc1Nc1ccnc2sc(C3CCNC34CCOC4)cc12 (centres unmarked) [Example 81, N-(2-(7-oxa-1-azaspiro[4.4]nonan-4-yl)thieno[2,3-b]pyridin-4-yl)-6-fluorobenzo[d]thiazol-5-amine] | ≥ 50 nM |
| CN1CCC(c2cc3c(Nc4cc5ncsc5cc4F)ccnc3s2)C12CCOC2 (centres unmarked) [Example 82, 6-fluoro-N-(2-(1-methyl-7-oxa-1-azaspiro[4.4]nonan-4-yl)thieno[2,3-b]pyridin-4-yl)benzo[d]thiazol-5-amine] | ≥ 50 nM |
| CCN1CCC(c2cc3c(Nc4cc5ncsc5cc4F)ccnc3s2)C12CCOC2 (centres unmarked) [Example 83, N-(2-(1-ethyl-7-oxa-1-azaspiro[4.4]nonan-4-yl)thieno[2,3-b]pyridin-4-yl)-6-fluorobenzo[d]thiazol-5-amine] | ≥ 50 nM |
| Fc1cc2scnc2cc1Nc1ccnc2sc(C3CCNC34CCOCC4)cc12 (centres unmarked) [Example 84, N-(2-(8-oxa-1-azaspiro[4.5]decan-4-yl)thieno[2,3-b]pyridin-4-yl)-6-fluorobenzo[d]thiazol-5-amine] | ≥ 50 nM |
| CN1CCC(c2cc3c(Nc4cc5ncsc5cc4F)ccnc3s2)C12CCOCC2 (centres unmarked) [Example 85, 6-fluoro-N-(2-(1-methyl-8-oxa-1-azaspiro[4.5]decan-4-yl)thieno[2,3-b]pyridin-4-yl)benzo[d]thiazol-5-amine] | ≥ 50 nM |
| CCN1CCC(c2cc3c(Nc4cc5ncsc5cc4F)ccnc3s2)C12CCOCC2 (centres unmarked) [Example 86, N-(2-(1-ethyl-8-oxa-1-azaspiro[4.5]decan-4-yl)thieno[2,3-b]pyridin-4-yl)-6-fluorobenzo[d]thiazol-5-amine] | ≥ 50 nM |
| CC1NCCC1c1cc2c(Nc3ccc4scnc4c3F)ccnc2s1 (centres unmarked) [Example 87, 4-fluoro-N-(2-(2-methylpyrrolidin-3-yl)thieno[2,3-b]pyridin-4-yl)benzo[d]thiazol-5-amine] | ≤ 10 nM |
| CCN1CCC(c2cc3c(Nc4ccc5scnc5c4F)ccnc3s2)C1C (centres unmarked) [Example 88, N-(2-(1-ethyl-2-methylpyrrolidin-3-yl)thieno[2,3-b]pyridin-4-yl)-4-fluorobenzo[d]thiazol-5-amine] | ≤ 10 nM |
| CC1C(c2cc3c(Nc4ccc5scnc5c4F)ccnc3s2)CCN1CCO (centres unmarked) [Example 89, 2-(3-(4-((4-fluorobenzo[d]thiazol-5-yl)amino)thieno[2,3-b]pyridin-2-yl)-2-methylpyrrolidin-1-yl)ethan-1-ol] | ≤ 10 nM |
| CC1(C)NCCC1c1cc2c(Nc3ccc4scnc4c3F)ccnc2s1 (centres unmarked) [Example 90, N-(2-(2,2-dimethylpyrrolidin-3-yl)thieno[2,3-b]pyridin-4-yl)-4-fluorobenzo[d]thiazol-5-amine] | ≤ 10 nM |
| CCN1CCC(c2cc3c(Nc4ccc5scnc5c4F)ccnc3s2)C1(C)C (centres unmarked) [Example 91, N-(2-(1-ethyl-2,2-dimethylpyrrolidin-3-yl)thieno[2,3-b]pyridin-4-yl)-4-fluorobenzo[d]thiazol-5-amine] | 10 to 20 nM |
| CC1(C)C(c2cc3c(Nc4ccc5scnc5c4F)ccnc3s2)CCN1CCO (centres unmarked) [Example 92, 2-(3-(4-((4-fluorobenzo[d]thiazol-5-yl)amino)thieno[2,3-b]pyridin-2-yl)-2,2-dimethylpyrrolidin-1-yl)ethan-1-ol] | ≤ 10 nM |
| CC1NCCC1c1cc2c(Nc3c(F)cc4scnc4c3F)ccnc2s1 (centres unmarked) [Example 93, 4,6-difluoro-N-(2-(2-methylpyrrolidin-3-yl)thieno[2,3-b]pyridin-4-yl)benzo[d]thiazol-5-amine] | ≤ 10 nM |
| CCN1CCC(c2cc3c(Nc4c(F)cc5scnc5c4F)ccnc3s2)C1C (centres unmarked) [Example 94, N-(2-(1-ethyl-2-methylpyrrolidin-3-yl)thieno[2,3-b]pyridin-4-yl)-4,6-difluorobenzo[d]thiazol-5-amine] | ≤ 10 nM |
| CC1C(c2cc3c(Nc4c(F)cc5scnc5c4F)ccnc3s2)CCN1CCO (centres unmarked) [Example 95, 2-(3-(4-((4,6-difluorobenzo[d]thiazol-5-yl)amino)thieno[2,3-b]pyridin-2-yl)-2-methyl-pyrrolidin-1-yl)ethan-1-ol] | 10 to 20 nM |
| CC1(C)NCCC1c1cc2c(Nc3c(F)cc4scnc4c3F)ccnc2s1 (centres unmarked) [Example 96, N-(2-(2,2-dimethylpyrrolidin-3-yl)thieno[2,3-b]pyridin-4-yl)-4,6-difluorobenzo[d]thiazol-5-amine] | ≤ 10 nM |
| CCN1CCC(c2cc3c(Nc4c(F)cc5scnc5c4F)ccnc3s2)C1(C)C (centres unmarked) [Example 97, N-(2-(1-ethyl-2,2-dimethylpyrrolidin-3-yl)thieno[2,3-b]pyridin-4-yl)-4,6-difluorobenzo[d]thiazol-5-amine] | ≤ 10 nM |
| CC1(C)C(c2cc3c(Nc4c(F)cc5scnc5c4F)ccnc3s2)CCN1CCO (centres unmarked) [Example 98, 2-(3-(4-((4,6-difluorobenzo[d]thiazol-5-yl)amino)thieno[2,3-b]pyridin-2-yl)-2,2-dimethylpyrrolidin-1-yl)ethan-1-ol] | ≤ 10 nM |

| Structure (SMILES) | IC50 |
| --- | --- |
| Fc1cc2scnc2c(F)c1Nc1ccnc2sc(C3CCNC34CCOC4)cc12 (centres unmarked) [Example 99, N-(2-(7-oxa-1-azaspiro[4.4]nonan-4-yl)thieno[2,3-b]pyridin-4-yl)-4,6-difluorobenzo[d]thiazol-5-amine] | 10 to 20 nM |
| CN1CCC(c2cc3c(Nc4c(F)cc5scnc5c4F)ccnc3s2)C12CCOC2 (centres unmarked) [Example 100, 4,6-difluoro-N-(2-(1-methyl-7-oxa-1-azaspiro[4.4]nonan-4-yl)thieno[2,3-b]pyridin-4-yl)benzo[d]thiazol-5-amine] | 10 to 20 nM |
| CCN1CCC(c2cc3c(Nc4c(F)cc5scnc5c4F)ccnc3s2)C12CCOC2 (centres unmarked) [Example 101, N-(2-(1-ethyl-7-oxa-1-azaspiro[4.4]nonan-4-yl)thieno[2,3-b]pyridin-4-yl)-4,6-difluorobenzo[d]thiazol-5-amine] | 20 to 50 nM |
| Fc1cc2scnc2c(F)c1Nc1ccnc2sc(C3CCNC34CCOCC4)cc12 (centres unmarked) [Example 102, N-(2-(8-oxa-1-azaspiro[4.5]decan-4-yl)thieno[2,3-b]pyridin-4-yl)-4,6-difluorobenzo[d]thiazol-5-amine] | 10 to 20 nM |
| CN1CCC(c2cc3c(Nc4c(F)cc5scnc5c4F)ccnc3s2)C12CCOCC2 (centres unmarked) [Example 103, 4,6-difluoro-N-(2-(1-methyl-8-oxa-1-azaspiro[4.5]decan-4-yl)thieno[2,3-b]pyridin-4-yl)benzo[d]thiazol-5-amine] | 20 to 50 nM |
| CCN1CCC(c2cc3c(Nc4c(F)cc5scnc5c4F)ccnc3s2)C12CCOCC2 (centres unmarked) [Example 104, N-(2-(1-ethyl-8-oxa-1-azaspiro[4.5]decan-4-yl)thieno[2,3-b]pyridin-4-yl)-4,6-difluorobenzo[d]thiazol-5-amine] | ≥ 50 nM |
| C1=C(c2cc3c(Nc4ccc5scnc5c4)ccnc3s2)CCNCC1 [Example 105, N-(2-(2,3,6,7-tetrahydro-1H-azepin-4-yl)thieno[2,3-b]pyridin-4-yl)benzo[d]thiazol-5-amine] | ≤ 10 nM |
| CN1CCC=C(c2cc3c(Nc4ccc5scnc5c4)ccnc3s2)CC1 [Example 106, N-(2-(1-methyl-2,3,6,7-tetrahydro-1H-azepin-4-yl)thieno[2,3-b]pyridin-4-yl)benzo[d]thiazol-5-amine] | ≤ 10 nM |
| CC(=O)N1CCC=C(c2cc3c(Nc4ccc5scnc5c4)ccnc3s2)CC1 [Example 107, 1-(4-(4-(benzo[d]thiazol-5-ylamino)thieno[2,3-b]pyridin-2-yl)-2,3,6,7-tetrahydro-1H-azepin-1-yl)ethan-1-one] | ≤ 10 nM |
| c1cc(Nc2ccc3scnc3c2)c2cc(C3CCCNCC3)sc2n1 (centres unmarked) [Example 108, N-(2-(azepan-4-yl)thieno[2,3-b]pyridin-4-yl)benzo[d]thiazol-5-amine] | ≤ 10 nM |
| CN1CCCC(c2cc3c(Nc4ccc5scnc5c4)ccnc3s2)CC1 (centres unmarked) [Example 109, N-(2-(1-methylazepan-4-yl)thieno[2,3-b]pyridin-4-yl)benzo[d]thiazol-5-amine] | ≤ 10 nM |
| CCN1CCCC(c2cc3c(Nc4ccc5scnc5c4)ccnc3s2)CC1 (centres unmarked) [Example 110, N-(2-(1-ethylazepan-4-yl)thieno[2,3-b]pyridin-4-yl)benzo[d]thiazol-5-amine] | ≤ 10 nM |
| CC(=O)N1CCCC(c2cc3c(Nc4ccc5scnc5c4)ccnc3s2)CC1 (centres unmarked) [Example 111, 1-(4-(4-(benzo[d]thiazol-5-ylamino)thieno[2,3-b]pyridin-2-yl)azepan-1-yl)ethan-1-one] | 10 to 20 nM |
| C1=C(c2cc3c(Nc4ccc5scnc5c4)ccnc3s2)CNCCC1 [Example 112, N-(2-(2,5,6,7-tetrahydro-1H-azepin-3-yl)thieno[2,3-b]pyridin-4-yl)benzo[d]thiazol-5-amine] | ≤ 10 nM |
| CN1CCCC=C(c2cc3c(Nc4ccc5scnc5c4)ccnc3s2)C1 [Example 113, N-(2-(1-methyl-2,5,6,7-tetrahydro-1H-azepin-3-yl)thieno[2,3-b]pyridin-4-yl)benzo[d]thiazol-5-amine] | ≤ 10 nM |
| CC(=O)N1CCCC=C(c2cc3c(Nc4ccc5scnc5c4)ccnc3s2)C1 [Example 114, 1-(6-(4-(benzo[d]thiazol-5-ylamino)thieno[2,3-b]pyridin-2-yl)-2,3,4,7-tetrahydro-1H-azepin-1-yl)ethan-1-one] | ≤ 10 nM |
| CC1NCCCCC1c1cc2c(Nc3ccc4scnc4c3)ccnc2s1 (centres unmarked) [Example 115a, N-(2-(2-methylazepan-3-yl)thieno[2,3-b]pyridin-4-yl)benzo[d]thiazol-5-amine] | ≤ 10 nM |
| CC1C(c2cc3c(Nc4ccc5scnc5c4)ccnc3s2)CCCCN1C (centres unmarked) [Example 116a, N-(2-(1,2-dimethylazepan-3-yl)thieno[2,3-b]pyridin-4-yl)benzo[d]thiazol-5-amine] | ≤ 10 nM |
| CC1NCCCCC1c1cc2c(Nc3cc4ncsc4cc3F)ccnc2s1 (centres unmarked) [Example 117c] | ≤ 10 nM |
